Holding throughout (format): cell-based
The subject of assay [1] is Neisseria meningitidis strain LNP17723. Briefly: MIC of penicillin G, strain LNP17723. The settings on record: strain LNP17723, serogroup C. The source says: (§1) Features of all Neisseria meningitidis strains for which a recombinant Neisseria meningitidis PBP2 fragment lacking the N-terminal transmembrane domain was produced are listed in following Table 3.
The subject of assay [2] is Neisseria meningitidis strain TR 16504. Put plainly: MIC of penicillin G, strain TR 16504. The settings on record: strain TR 16504, serogroup C.
Text: as §1

For assay [3], the system named is Neisseria meningitidis strain LNP16504. Put plainly: MIC of penicillin G, strain LNP16504. The settings on record: strain LNP16504, serogroup B.
Text: as §1

For assay [4], the system named is Neisseria meningitidis strain LNP17041. Briefly: MIC of penicillin G, strain LNP17041. The settings on record: strain LNP17041, serogroup B.
Text: as §1

In assay [5] the test system is Neisseria meningitidis strain LNP16454. Briefly: MIC of penicillin G, strain LNP16454. The settings on record: strain LNP16454, serogroup C.
Text: as §1

Assay [6] deals with Neisseria meningitidis strain TR TH-41. Put plainly: MIC of penicillin G, strain TR TH-41. The settings on record: strain TR TH-41, serogroup C.
Text: as §1

For assay [7], the system named is Neisseria meningitidis strain TR 16454. Briefly: MIC of penicillin G, strain TR 16454. The settings on record: strain TR 16454, serogroup C.
Text: as §1

The test system of assay [8] is Neisseria meningitidis strain LNP8013. Briefly: MIC of penicillin G, strain LNP8013. The settings on record: strain LNP8013, serogroup C.
Text: as §1

Molecules are shown by their SMILES.

With `CC1(C)S[C@@H]2[C@H](NC(=O)Cc3ccccc3)C(=O)N2[C@H]1C(=O)O` [Penicillin G], the “MIC Penicillin G” value in assay [1] amounted to 0.75 µg/mL; in assay [2] it was 0.38 µg/mL; in assay [3] it was 0.25 µg/mL; in assay [4], 0.5 µg/mL; in assay [5], 1 µg/mL; in assay [6], 0.5 µg/mL. Further, the “MIC Penicillin G” value in assay [7] turned out to be 0.5 µg/mL; in assay [8] it was 0.094 µg/mL.
